A short description of series [1]: Solid-state accelerated stability, 40° C. and 75% relative humidity, 7 days, XRPD. In kind it is physicochemical. The procedure: A study was carried out to examine the physical stability of the crystalline 1:1 tranilast N-methylglucamine salt polymorphs with respect to solid form conversion over time under accelerated conditions. […] After this time each sample was analysed by XRPD to observe any potential form changes.
A study was carried out to examine the physical stability of the 1:1 crystalline tranilast salts with respect to solid form conversion or deliquescence over time under accelerated conditions. […] Each sample was analysed by XRPD to observe any potential form changes.

A short description of series [2]: pKa values and ΔpKa of tranilast and the salt formers. The text has this:
When two solid components are successfully crystallised together to form a two-component molecular complex with a new unique solid-state crystalline structure this could result in either a salt or a cocrystal. Whether a salt or a cocrystal is formed is dependent on whether a proton transfer takes place between the two different components of the complex. If a proton is transferred from one component to the other resulting in ionic bonding then a crystalline salt results. If no proton transfer occurs and the components remain in their neutral state, held together only by hydrogen bonds, Van der Waals bonds etc, then a cocrystal is formed. Whether or not proton transfer takes place is governed by the difference in pKa values for the acidic and basic functional groups of each component.

Series [3] can be described thus: Dissolution study in simulated intestinal fluid (FaSSIF V2). The class given is physicochemical. Particulars: 50 ml FaSSIF V2, pH 6.5, 37° C. The text has this:
For BCS class II drugs, such as tranilast, the rate of dissolution of the drug form used in the gastrointestinal media can be the controlling factor in the overall absorption and thus the bioavailability of an oral drug. This becomes even more influential as the dose of a drug increases. For conditions such as fibrosis or cancer where a higher dose of tranilast may be needed for successful treatment, finding a form of tranilast that has a high dissolution rate is important. […] Pat. […] The dissolution study was carried out using the Pion inForm® instrument. Detection and quantification of tranilast was performed by in-situ UV-spectroscopy using a fibre-optic probe, allowing instantaneous data collection from the point of sample introduction.

The conditions of series [4]: cited from earlier work.
Series [5] is described as follows: Solid-state photostability study (UV irradiation, HPLC). Particulars: for solid-state photostability (in words): UV irradiation up to 24 hours. As for the experimental part: A 6-10 mg sample of each of the tranilast forms under investigation was spread over the bottom surface of a clear glass vial.
Series [6] is described as follows: Solution photostability study (UV irradiation, HPLC). Particulars: 2 mg dissolved in water (1 ml).
Procedure: (§1) A 2 mg sample of the four salt forms under investigation were each weighed into a clear glass vial. Each sample was dissolved in water (1 ml).
For series [7] the following is noted: for Solubility (mg/ml) in terms of the mass of tranilast dissolved: water pH7.0, 25° C., 24 hours.
Series [8] in a line: Solid-state stability under high storage temperature, 90° C., 7 days, XRPD. The class given is physicochemical. Particulars: oven at 90° C. The procedure: A third study was carried out to explore the solid-state stability of the crystalline 1:1 tranilast N-methylglucamine salt polymorphs under high storage temperatures. Forms I and II of 1:1 tranilast N-methylglucamine salt (50 mg) were stored in an oven at 90° C. for 7 days. After this time each sample was analysed by XRPD to observe any potential form changes.

Series [9] in a line: Solid-state stability under high humidity, 25° C. and 100% relative humidity, 7 days, XRPD. Particulars: sealed container. In kind it is physicochemical. The procedure: A second study was carried out to explore the solid-state stability of the crystalline 1:1 tranilast N-methylglucamine salt polymorphs under high humidity. Forms I and II of 1:1 tranilast N-methylglucamine salt (50 mg) were separately placed in a sealed container at 25° C. and 100% relative humidity and stored under these conditions for 7 days. After this time each sample was analysed by XRPD to observe any potential form changes.

Series [10] in a line: Gravimetric vapour sorption (GVS) analysis. The class given is physicochemical. Particulars: for moisture reversibly absorbed (GVS): across the 90% humidity range at 25° C. The text has this: The moisture sorption isotherm graph obtained for the crystalline 1:1 tranilast N-methylglucamine Form I salt is shown in FIG. 5.
The moisture sorption isotherm graph obtained for the crystalline 1:1 tranilast N-methylglucamine Form II salt is shown in FIG. 10.

The conditions of series [11]: buffer, 2 mg/ml.
Procedure: as §1
For series [12] the following is noted: protonated basic functional group of the salt former; cited from earlier work.
The mark [13] stands for this setting: sealed container, 40° C. and 75% relative humidity, 7 days.

Structures are written as SMILES. Structures can show the parent of a compound that is named as a salt. Where two headings read alike, the source gives them in different places.

For the compound `COc1ccc(/C=C/C(=O)Nc2ccccc2C(=O)O)cc1OC.NCCO` [Tranilast Salt Ethanolamine, Crystalline Tranilast Ethanolamine Salt], in series [1] (setting [13]), the deliquescence result is on record as “no signs of deliquescence” and the “solid form conversion (XRPD)” value is “retained their original crystalline form”.

As to `NCCCC[C@H](N)C(=O)O` [Lysine], the ΔpKa in series [2] stood at 5.70.

For `CNC[C@H](O)[C@@H](O)[C@H](O)[C@H](O)CO` [N-methylglucamine], in series [2] (pKa (protonated base) - pKa (acid), salt former versus tranilast), the ΔpKa was 6.27.

Take `COc1ccc(/C=C/C(=O)Nc2ccccc2C(=O)O)cc1OC.NC(=O)c1cccnc1` [1:1 tranilast nicotinamide cocrystal]: the “solubility reached after 30 seconds” value in [3] (30 seconds) is 2700 µg/mL. In series [3] (5 minutes), the “solubility after 5 minutes” value is 1950 µg/mL. Further, the “solubility after 20 minutes” value in series [3] (20 minutes) is 1700 µg/mL.

As to `CCNC[C@H](O)[C@@H](O)[C@H](O)[C@H](O)CO.COc1ccc(/C=C/C(=O)Nc2ccccc2C(=O)O)cc1OC` [Tranilast Salt N-ethylglucamine, Crystalline 1:1 Tranilast N-Ethylglucamine Salt], in series [1] (setting [13]), the deliquescence entry was “no signs of deliquescence” and the “solid form conversion (XRPD)” value is listed as “retained their original crystalline form”.

`COc1ccc(/C=C/C(=O)Nc2ccccc2C(=O)O)cc1OC` [crystalline 1:1 tranilast sodium salt] came in with a solubility at 20 minutes in series [3] (simulated intestinal fluid (FaSSIF V2), thermodynamic from solid, 20 minutes) of 300 µg/mL. Also, the “apparent solubility relative to pure crystalline tranilast (in words)” value in series [4] is on record as “lower apparent solubility than pure tranilast”; in series [4] (listed as crystalline tranilast sodium salt) it was “even less than that of pure tranilast”.

For the compound `CCNCC` [Diethylamine], the “% tranilast remaining after UV exposure” value in series [5] (solid state, 2 hrs) is recorded as 99.57%; in [5] (solid state, 6 hrs), 99.61%; in series [5] (solid state, 24 hrs), 99.63%; in series [6] (2 hrs), 92.06%; in series [6] (6 hrs), 52.30%; in series [6] (24 hrs) it was 20.72%.

As for `NCCCC[C@H](N)C(=O)O` [L-Lysine], the “% tranilast remaining after UV exposure” value in series [5] (solid state, 2 hrs) worked out at 99.35%; in [5] (solid state, 6 hrs), 99.53%; in series [5] (solid state, 24 hrs) it was 99.54%; in [6] (2 hrs), 92.53%; in series [6] (6 hrs) it was 55.98%; in [6] (24 hrs), 21.03%. Besides, in [7], the “Solubility (mg/ml) in terms of the mass of tranilast dissolved” value was 277 to 283 mg/mL.

With `CNC[C@H](O)[C@@H](O)[C@H](O)[C@H](O)CO.COc1ccc(/C=C/C(=O)Nc2ccccc2C(=O)O)cc1OC` [Tranilast Salt N-methylglucamine Form I, Crystalline 1:1 Tranilast N-methylglucamine Form I Salt], the “solid form conversion (XRPD)” value in series [8], in [1] (setting [13]) and in series [9] was “retained their original crystalline form” each time. Moreover, the “form conversion in GVS (XRPD)” value in series [10] (XRPD of the sample at 0% RH and 90% RH) was “did not demonstrate any form conversion”. Besides, in series [10] (listed as crystalline 1:1 tranilast N-methylglucamine Form I salt), the “moisture reversibly absorbed (GVS)” value was determined as 1.4 % w/w. Moreover, the “aqueous solubility (mass of salt)” value in series [7] (pH 7) was “greater than 1000 mg/ml”.

For the compound `CCNC[C@H](O)[C@@H](O)[C@H](O)[C@H](O)CO` [N-ethylglucamine], the “% tranilast remaining after UV exposure” value in series [11] (2 h) worked out at 84.13%; in series [11] (6 h) it was 58.20%; in [11] (24 h), 35.90%; in series [5] (2 h), 99.55%; in [5] (6 h) it was 99.61%; in [5] (24 h) it was 99.47%. Further, the pKa in [12] is reported as 9.52. Further, the ΔpKa in series [2] is reported as 6.27.

With `COc1ccc(/C=C/C(=O)Nc2ccccc2C(=O)O)cc1OC.NCCCC[C@H](N)C(=O)O` [Tranilast Salt L-Lysine, Crystalline 1:1 Tranilast L-Lysine Salt], in [5] (solid state), the “solid-state photostability (in words)” value is given as “photostable”. For the same compound, in [1], the deliquescence result was “no signs of deliquescence” and the “solid form conversion (XRPD)” value is on record as “retained their original crystalline form”.

For `CCNCC.COc1ccc(/C=C/C(=O)Nc2ccccc2C(=O)O)cc1OC` [Tranilast Salt Diethylamine, Crystalline 1:1 Tranilast Diethylamine Salt], the “solid-state photostability (in words)” value in series [5] (solid state) was “photostable”. Further, in series [1] (setting [13]), the deliquescence entry is “no signs of deliquescence” and the “solid form conversion (XRPD)” value is reported as “retained their original crystalline form”. Also, the “Solubility (mg/ml) in terms of the mass of tranilast dissolved” value in series [7] fell in the range of 18 to 20 mg/mL.

With `CNC[C@H](O)[C@@H](O)[C@H](O)[C@H](O)CO.COc1ccc(/C=C/C(=O)Nc2ccccc2C(=O)O)cc1OC` [Tranilast Salt N-methylglucamine Form II, Crystalline 1:1 Tranilast N-methylglucamine Form II Salt], the “moisture reversibly absorbed (GVS)” value in series [10] (listed as crystalline 1:1 tranilast N-methylglucamine form II salt) was found to be 0.42 % w/w.

`COc1ccc(/C=C/C(=O)Nc2ccccc2C(=O)[O-])cc1OC.O.[K+]` [Tranilast Salt Potassium Monohydrate, Crystalline 1:1 Tranilast Potassium Monohydrate Salt]: in series [1] (setting [13]), the deliquescence entry is recorded as “no signs of deliquescence” and the “solid form conversion (XRPD)” value is listed as “retained their original crystalline form”.

Turning to `CNC[C@H](O)[C@@H](O)[C@H](O)[C@H](O)CO` [N-methylglucamine Form II], the “% tranilast remaining after UV exposure” value in series [5] (2 h) is 99.50%; in series [5] (6 h), 99.58%; in [5] (24 h), 99.51%.

In the case of `COc1ccc(/C=C/C(=O)Nc2ccccc2C(=O)O)cc1OC.OCCNCCO` [Tranilast Salt Diethanolamine, Crystalline Tranilast Diethanolamine Salt], in series [1] (setting [13]), the deliquescence result is “no signs of deliquescence” and the “solid form conversion (XRPD)” value is reported as “retained their original crystalline form”.

Source of the values: patent US12084399B2, “Crystalline tranilast salts and their pharmaceutical use” (NUFORMIX TECHNOLOGIES LIMITED, priority 2018, dated 2024).
